For 1 compound, Kd results are on record in article PMC4872661 (Journal of molecular recognition : JMR, 2011).

This assay concerns the target DAFP-1. In words: Hummel-Dreyer size-exclusion HPLC, Klotz plot. Type of assay: binding, Dendroides canadensis. Conditions: 0.10 M Na2SO4, 0.05% NaN3, 0.10 M NaPi, pH 7.00, ambient temperature; 1:1 stoichiometry. For orientation: In gel filtration, larger molecules generally elute earlier.

Structures are written as SMILES.

On to `NC(=O)C1=CN([C@@H]2O[C@H](COP(=O)(O)OP(=O)(O)OC[C@H]3O[C@@H](n4cnc5c(N)ncnc54)[C@H](O)[C@@H]3O)[C@@H](O)[C@H]2O)C=CC1` [NADH, β-nicotinamide adenine dinucleotide, reduced], for which the dissociation constant Kd (commonly the free concentration of one partner at which half of the binding sites on the other are occupied at equilibrium, for simple one-to-one binding) worked out at 280 ± 20 nM.
